This assay addresses T1, Leukotriene A-4 hydrolase (Homo sapiens, UniProt P09960).
T1 sequence (P09960 whole entry): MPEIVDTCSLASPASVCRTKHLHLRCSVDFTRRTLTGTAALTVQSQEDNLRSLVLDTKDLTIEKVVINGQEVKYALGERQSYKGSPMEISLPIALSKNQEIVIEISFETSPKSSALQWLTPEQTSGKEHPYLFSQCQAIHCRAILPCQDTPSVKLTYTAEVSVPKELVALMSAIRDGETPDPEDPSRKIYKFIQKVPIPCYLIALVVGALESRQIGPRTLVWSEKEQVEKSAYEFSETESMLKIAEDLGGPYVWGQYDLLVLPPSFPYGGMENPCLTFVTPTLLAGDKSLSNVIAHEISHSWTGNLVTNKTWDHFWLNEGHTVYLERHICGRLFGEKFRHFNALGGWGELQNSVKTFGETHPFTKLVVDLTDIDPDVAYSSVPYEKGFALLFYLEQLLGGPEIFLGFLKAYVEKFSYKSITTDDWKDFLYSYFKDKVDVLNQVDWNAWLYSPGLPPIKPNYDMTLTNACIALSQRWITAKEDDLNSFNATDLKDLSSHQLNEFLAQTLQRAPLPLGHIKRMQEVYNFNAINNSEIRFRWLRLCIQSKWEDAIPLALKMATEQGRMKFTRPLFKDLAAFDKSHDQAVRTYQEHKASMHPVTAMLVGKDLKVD
The assay is described as follows: Inhibition of recombinant human LTA4H Epoxide Hydrolase expressed in Escherichia coli BL21 (DE3) pLysS preincubated for 10 mins followed by addition of LTA4 as substrate measured after 15 mins by reverse-phase HPLC analysis.

Regarding `CN(C)Cc1cccc(S(=O)(=O)n2ccc(/C=C/C(=O)NO)c2)c1`, the half-inhibitory concentration (IC50) is more than 10 µM.

Values taken from BindingDB's records for doi:10.1021/acs.jmedchem.6b01507 (East China University of Science and Technology, 2017).
